“And” between values parts separate entries of the source, which are not always exact repeats. Equal values may be shown once.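 96-well plates; 48 h exposure; 5 concentrations. Endpoints by linear interpolation between flanking doses. Not reached: highest tested concentration assigned. GI50: concentration for 50% inhibition of growth. TGI: total growth inhibition.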
tested on: DU-145 prostate; assay: NCI anticancer screen, dose series, 48 h

First: COC(=O)[C@]12CC[C@@H](C)[C@H](C)[C@@H]1C1=CC[C@@H]3[C@@]4(C)C/C(=N\O)[C@H](O)[C@@]5(C)COC(=C45)C[C@@]3(C)[C@]1(C)CC2
Second: C=C1C(=O)O[C@H]2[C@H]1CC/C(Cn1cc(-c3ccc(OC)cc3)nn1)=C\CC[C@@]1(C)O[C@@H]21
The GI50 of the first is 7.7-fold higher: 8.57 µM for the first, 1.11 µM for the second.

Compared with `Oc1c(CN2CCC(N3CCCCC3)CC2)cc(Cc2cc(CN3CCC(N4CCCCC4)CC3)c(O)c3ncccc23)c2cccnc12`, `C=CC(=O)N1CC2(CCN(c3nc(OC4CCN(CCCOC)CC4)nc4c(OCC(F)(F)F)c(-c5c(C)ccc6[nH]ncc56)c(C5CC5)cc34)CC2)C1` is 3.3-fold higher in GI50: 0.871 µM for the first, 2.9 µM for the second.

Compared with `Cn1c2ccccc2c2c(-c3ccccc3)[n+]3ccncc3nc21`, `COc1ccc(/C(COc2c(-c3ccccc3)oc3ccccc3c2=O)=N\O)cc1` is lower in GI50: greater than 100 µM for the first, 22 µM for the second.

`C[C@@H]1OC(O)[C@@H](F)[C@H](O)[C@@H]1O` (some centres undefined) and `CS(=O)(=O)c1ccc([C@H]2O[C@@H](CO)C[C@]2(O)c2ccc(S(C)(=O)=O)cc2)cc1` cannot be ordered by GI50: greater than 100 µM for the first, greater than 100 µM for the second.

Going from `COc1ccc(-c2cnnc3c(-c4cccc(C(F)(F)F)c4)cnn23)cc1` to `N#Cc1ccc(O)c(C2=NCC(c3cccc(Oc4ccccc4)c3)O2)c1` (centres undefined), the GI50 falls from 3.97 µM to 1.27 µM (3.1-fold).

Going from `NC(=O)c1ccc(I)c(N)c1` to `O=C(/C(Br)=C/c1ccccc1)c1ccccc1`, the GI50 falls from greater than 100 µM to 1.77 µM.

Compared with `C=CCCCCCCCCC(=O)[O][Sn]([CH2]CCC)([CH2]CCC)[CH2]CCC`, `CCOc1cc2c(Cl)ncnc2c(OCC)c1OCC` is 12-fold higher in GI50: 0.15 µM for the first, 1.75 µM for the second.

`CC/C(=C(/c1ccc(O)cc1)c1ccc(OCCNC)cc1)c1ccccc1` and `Oc1ccc2ccccc2c1N=Nc1nccs1` are within 1.5-fold of each other in GI50: 2.63 µM for the first, 2.17 µM for the second.

First: O=C1CCCCN1CCCCC#Cc1ccccc1C#Cc1ccc([N+](=O)[O-])cc1
Second: COc1cc([N+](=O)[O-])cc2c3c(n(C)c12)[C@@]1(C)CCC2c4ccc(OCc5ccccc5)cc4CCC2C1C3 (some centres undefined)
The GI50 of the first is lower: 17.5 µM for the first, greater than 100 µM for the second.

Going from `N#CSc1c[nH]c2cccc(/C=C/C(=O)/C=C(/C=C/c3cccc4[nH]cc(SC#N)c34)OB(F)F)c12` to `CC(C)(C)OC(=O)N1CCc2c(sc3ncnc(N/N=C/c4cccc5ccccc45)c23)C1`, the GI50 rises from 1.1 µM to 5.51 µM (5-fold).

Compared with `Nc1nc(Cl)c2ncn(Cc3ccc(C45CC6CC(CC(C6)C4)C5)c(O)c3)c2n1`, `CCN(CC)c1ccc(/C=C/c2ccc3cc(C)ccc3[n+]2CC)cc1` is 33-fold lower in GI50: 3.14 µM for the first, 0.0942 µM for the second.

First: COC(=O)[C@]12CC[C@@H](C)[C@H](C)[C@@H]1C1=CC[C@@H]3[C@@]4(C)C/C(=N\O)[C@H](O)[C@@]5(C)COC(=C45)C[C@@]3(C)[C@]1(C)CC2
Second: C[C@]12CC[C@H]3[C@@H](CC=C4C[C@@H](O)CC[C@@]43C)[C@@H]1CC[C@@H]2N(CCO)CCO
The TGI of the first is lower: 22.8 µM for the first, greater than 100 µM for the second.

Compared with `Oc1c(CN2CCC(N3CCCCC3)CC2)cc(Cc2cc(CN3CCC(N4CCCCC4)CC3)c(O)c3ncccc23)c2cccnc12`, `C=CC(=O)N1CC2(CCN(c3nc(OC4CCN(CCCOC)CC4)nc4c(OCC(F)(F)F)c(-c5c(C)ccc6[nH]ncc56)c(C5CC5)cc34)CC2)C1` is 1.8-fold lower in TGI: 16.1 µM for the first, 9.12 µM for the second.

`Cn1c2ccccc2c2c(-c3ccccc3)[n+]3ccncc3nc21` and `COc1ccc(/C(COc2c(-c3ccccc3)oc3ccccc3c2=O)=N\O)cc1` cannot be ordered by TGI: greater than 100 µM for the first, greater than 50 µM for the second.

First: C[C@@H]1OC(O)[C@@H](F)[C@H](O)[C@@H]1O (some centres undefined)
Second: COC1/C=C\C=C(/C)C(=O)NC2=CC(=O)C(=O)C(=C2O)CC(C)CC(OC)C(O)C(C)/C=C(\C)C1OC(N)=O (centres undefined)
The TGI of the first is higher: greater than 100 µM for the first, 35.5 µM for the second.

Compared with `COc1ccc(-c2cnnc3c(-c4cccc(C(F)(F)F)c4)cnn23)cc1`, `C=C1C(=O)O[C@H]2[C@H]1CC/C(Cn1cc(-c3ccc(OC)cc3)nn1)=C\CC[C@@]1(C)O[C@@H]21` is lower in TGI: greater than 100 µM for the first, 2.32 µM for the second.

`NC(=O)c1ccc(I)c(N)c1` and `Cc1ccc2c(c1)[n+]([O-])c(N)n[n+]2[O-]` cannot be ordered by TGI: greater than 100 µM for the first, greater than 100 µM for the second.

Compared with `C=CCCCCCCCCC(=O)[O][Sn]([CH2]CCC)([CH2]CCC)[CH2]CCC`, `CCOc1cc2c(Cl)ncnc2c(OCC)c1OCC` is 11-fold higher in TGI: 0.29 µM for the first, 3.14 µM for the second.

First: CC/C(=C(/c1ccc(O)cc1)c1ccc(OCCNC)cc1)c1ccccc1
Second: N#Cc1ccc(O)c(C2=NCC(c3cccc(Oc4ccccc4)c3)O2)c1 (centres undefined)
The TGI of the first is lower: 6.81 µM for the first, greater than 100 µM for the second.

Compared with `O=C(/C(Br)=C/c1ccccc1)c1ccccc1`, `CC(C)(CC(=O)Nc1ccccc1)C(=O)O` is higher in TGI: 3.95 µM for the first, greater than 100 µM for the second.

First: O=C1CCCCN1CCCCC#Cc1ccccc1C#Cc1ccc([N+](=O)[O-])cc1
Second: COc1cc([N+](=O)[O-])cc2c3c(n(C)c12)[C@@]1(C)CCC2c4ccc(OCc5ccccc5)cc4CCC2C1C3 (some centres undefined)
The TGI of the first is lower: 36 µM for the first, greater than 100 µM for the second.

Going from `Oc1ccc2ccccc2c1N=Nc1nccs1` to `CC(C)(C)OC(=O)N1CCc2c(sc3ncnc(N/N=C/c4cccc5ccccc45)c23)C1`, the TGI rises from 16 µM to greater than 100 µM.

`CC(=O)OCCN1c2ccccc2Sc2cnccc21` and `Cn1c(=O)c2[nH]c(SCc3ccccn3)nc2n(C)c1=S` cannot be ordered by TGI: greater than 10 µM for the first, greater than 100 µM for the second.

`COc1ccc(-c2cc(=O)c3ccc(O)cc3o2)cc1OC` and `CS(=O)(=O)c1ccc([C@H]2O[C@@H](CO)C[C@]2(O)c2ccc(S(C)(=O)=O)cc2)cc1` cannot be ordered by TGI: greater than 100 µM for the first, greater than 100 µM for the second.

Compared with `N#CSc1c[nH]c2cccc(/C=C/C(=O)/C=C(/C=C/c3cccc4[nH]cc(SC#N)c34)OB(F)F)c12`, `CCN(CC)c1ccc(/C=C/c2ccc3cc(C)ccc3[n+]2CC)cc1` is 4.8-fold higher in TGI: 2.63 µM for the first, 12.7 µM for the second.

Compared with `Nc1nc(Cl)c2ncn(Cc3ccc(C45CC6CC(CC(C6)C4)C5)c(O)c3)c2n1`, `CCC(C)c1c(Cl)nc(Cl)nc1Cl` (centres undefined) is 2.6-fold higher in TGI: 11.8 µM for the first, 30.4 µM for the second.

With `COc1cc2c(c(O)c1Br)C(=O)c1c(O)cc(C[C@H](C)O)cc1[C@H]2[C@H]1c2cc(C[C@H](C)O)cc(O)c2C(=O)c2c1cc(OC)c(Br)c2O` the GI50 was 4.8 µM and 23.1 µM.

With `COc1cc2c(c(O)c1Br)C(=O)c1c(O)cc(C[C@H](C)O)cc1[C@H]2[C@H]1c2cc(C[C@H](C)O)cc(O)c2C(=O)c2c1cc(OC)c(Br)c2O` the TGI was 67.5 µM and > 100 µM.
